In PubChem BioAssay AID1033 (Sanford-Burnham Center for Chemical Genomics, 2008):
The source made the active and inactive calls. The rule behind the calls is not given here.

These compounds were tested against Chaperone protein DnaK (Escherichia coli (strain K12)) (UniProt P0A6Y8) (assay: E. coli DnaK SBD ligand binding – biophysical, NMR, chaperone (AID 1033)). Conditions: Purified DnaK SBD.
Chain of Chaperone protein DnaK (Escherichia coli (strain K12)) (P0A6Y8 whole entry, looked up): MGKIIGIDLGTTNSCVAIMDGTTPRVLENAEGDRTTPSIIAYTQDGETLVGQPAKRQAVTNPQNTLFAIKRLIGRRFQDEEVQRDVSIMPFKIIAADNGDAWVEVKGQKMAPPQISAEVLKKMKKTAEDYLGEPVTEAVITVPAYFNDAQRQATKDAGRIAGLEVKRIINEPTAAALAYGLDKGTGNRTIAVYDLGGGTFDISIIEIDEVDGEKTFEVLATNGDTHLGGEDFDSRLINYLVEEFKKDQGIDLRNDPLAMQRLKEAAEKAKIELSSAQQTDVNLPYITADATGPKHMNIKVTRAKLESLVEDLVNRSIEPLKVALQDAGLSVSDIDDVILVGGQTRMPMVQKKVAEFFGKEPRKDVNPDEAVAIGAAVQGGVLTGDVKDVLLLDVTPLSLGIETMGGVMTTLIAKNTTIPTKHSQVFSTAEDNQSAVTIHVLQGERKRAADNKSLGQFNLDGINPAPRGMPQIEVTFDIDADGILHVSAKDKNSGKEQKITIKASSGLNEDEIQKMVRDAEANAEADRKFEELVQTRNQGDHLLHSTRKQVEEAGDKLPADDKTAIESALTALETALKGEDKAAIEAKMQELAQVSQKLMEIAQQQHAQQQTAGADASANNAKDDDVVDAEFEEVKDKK

Row | Compound | Kd
1 | Nc1c(S(=O)(=O)c2ccccc2)csc1C(=O)O | > 4 mM (inactive)
2 | O=C(CC1Nc2ccccc2NC1=O)Nc1ccc(O)cc1 (configuration not stated) | > 4 mM (inactive)
3 | NC(=O)C1CCCN1S(=O)(=O)c1ccc(F)cc1 (configuration not stated) | > 4 mM (inactive)
4 | COc1ccc(NC2=NCC(C)S2)cc1 (configuration not stated) | > 4 mM (inactive)
5 | Cc1csc2nc(=O)c3ccccc3n12 | > 4 mM (inactive)
6 | COc1cc(O)c(C(=O)c2ccccc2)cc1O | > 4 mM (inactive)
7 | CC(C)(C)c1cc(NC(=O)c2cccnc2)no1 | > 4 mM (inactive)
8 | O=C(Cc1cccs1)Nc1ccon1 | > 4 mM (inactive)
9 | CC(=O)O[C@H]1C[C@@H](OC(C)=O)C(C)(C)C2CC(=O)[C@]3(C)C(CC[C@@]4(C)[C@H](c5ccoc5)OC(=O)[C@H]5O[C@]543)[C@]21C (some centres not stated) | > 4 mM (inactive)
10 | COC(=O)c1cccc(Cn2nnc3ccccc3c2=O)c1 | > 4 mM (inactive)
11 | O=[n+]1cc(C2=CC=CCC2)n([O-])c2c1CCCCC2 | > 4 mM (inactive)
12 | O=C(c1ccco1)N1CCCN(C(=O)c2ccco2)CC1 | > 4 mM (inactive)
13 | Nc1nc(CSc2ncn(-c3ccccc3)n2)cs1 | > 4 mM (inactive)
14 | O=C(NC1CCS(=O)(=O)C1)C1CCCCC1 (configuration not stated) | > 4 mM (inactive)
15 | COCC(=O)Nc1cc2c3c(c1)CCN3C(=O)CC2 | > 4 mM (inactive)
16 | Cc1ccc2nc(SCCC#N)nc(C)c2c1 | > 4 mM (inactive)
17 | CC(=O)Oc1ccc(-c2cc(=O)c3c(OC(C)=O)cc(OC(C)=O)cc3o2)cc1 | > 4 mM (inactive)
18 | CC(=O)O[C@H]1C[C@@H](OC(C)=O)C(C)(C)C2C[C@@H](OC(C)=O)[C@]3(C)C([C@H](OC(C)=O)C[C@@]4(C)[C@H](c5ccoc5)OC(=O)[C@H]5O[C@]543)[C@]21C (some centres not stated) | > 4 mM (inactive)
19 | Nc1ccccc1-c1nc2ccccc2[nH]1 | > 4 mM (inactive)
20 | NC(=O)CC(=O)NC12CC3CC(CC(C3)C1)C2 | > 4 mM (inactive)
21 | CCSc1nc(C)c(CC)c(C)c1C(N)=O | > 4 mM (inactive)
22 | Cc1cc(C(=O)Nc2sc(C)c(C)c2C#N)c(C)o1 | > 4 mM (inactive)
23 | Oc1ccc(-c2n[nH]c(=S)n2Cc2ccco2)cc1 | > 4 mM (inactive)
24 | O=c1c(-c2ccccc2)coc2cc(O)cc(O)c12 | > 4 mM (inactive)

Row | Compound | Kd
25 | COc1ccc(C(=O)NC2=NCCS2)cc1OC | > 4 mM (inactive)
26 | [O-][n+]1onc2c1CCc1c-2nn(-c2ccccc2)[n+]1[O-] | > 4 mM (inactive)
27 | COc1cc(C)c(Cl)cc1S(=O)(=O)N(C)C | > 4 mM (inactive)
28 | N#C/C(=C\c1ccc[nH]1)S(=O)(=O)c1ccccc1 | > 4 mM (inactive)
29 | CC(=O)Cc1nsc(NC(=O)c2ccc(C)cc2)n1 | > 4 mM (inactive)
30 | O=c1cccc2n1CC1CC2CN2CCCC[C@@H]12 (some centres not stated) | > 4 mM (inactive)
31 | CC(=O)c1cc(C(N)=O)c(=S)[nH]c1C | > 4 mM (inactive)
32 | O=C(O)CCn1c(=O)oc2ccccc21 | > 4 mM (inactive)
33 | Cc1nn(CC(=O)Nc2ccccn2)c(=O)c2ccccc12 | > 4 mM (inactive)
34 | CP(C)(=O)CCC(=O)O | > 4 mM (inactive)
35 | O=CN1CCN(C(=O)c2ccccc2Cl)CC1 | > 4 mM (inactive)
36 | O=c1c2c(nc3nc(COc4ccccc4)[nH]n13)CCC2 | > 4 mM (inactive)
37 | c1ccc2c(c1)[nH]c1cnccc12 | > 4 mM (inactive)
38 | Cn1c(CN2CC(c3ccccc3)CC2=O)n[nH]c1=S (configuration not stated) | > 4 mM (inactive)
39 | O=C(O)CNC(=O)c1ccc([N+](=O)[O-])cc1 | > 4 mM (inactive)
40 | Cc1cc2ncn(S(=O)(=O)N3CCOCC3)c2cc1C | > 4 mM (inactive)
41 | CSc1ccccc1NC(=O)c1ccncc1 | > 4 mM (inactive)
42 | Cc1noc(C)c1C(=O)Nc1ccccn1 | > 4 mM (inactive)
43 | CC12OC(=O)CC3C(C)(C)[C@H](O)C=C[C@]3(C)C1CC[C@]1(C)C2=CC(=O)O[C@H]1c1ccoc1 (some centres not stated) | > 4 mM (inactive)
44 | Cc1occc1C(=O)N1CCC2(CC1)OCCO2 | > 4 mM (inactive)
45 | O=C(O)c1cccc2c1OCC2 | > 4 mM (inactive)
46 | COCC(=O)N1CCCc2ccccc21 | > 4 mM (inactive)
47 | COc1cc(O)c(C(C)=O)c(OC)c1 | > 4 mM (inactive)
48 | Cc1nn2c(=O)nc3sc4c(c3c2[nH]c1=O)CCCC4 | > 4 mM (inactive)

Row | Compound | Kd
49 | Nc1nc2ncc(=O)[nH]c2c(=O)[nH]1 | > 4 mM (inactive)
50 | S=c1[nH]cnc2sccc12 | > 4 mM (inactive)
51 | OCc1ccc(-n2cccn2)cc1 | > 4 mM (inactive)
52 | O=c1c2ccccc2nc2n1CCS2 | > 4 mM (inactive)
53 | Cc1nc2ccccc2c(=O)n1CCCO | > 4 mM (inactive)
54 | O=C(O)C1COc2ccccc2O1 (configuration not stated) | > 4 mM (inactive)
55 | COC(=O)Nc1nc2c(C)cccc2s1 | > 4 mM (inactive)
56 | O=C(O)C1=CCCNC1 | > 4 mM (inactive)
57 | COc1nc(N2CCOCC2)nc(N)c1[N+](=O)[O-] | > 4 mM (inactive)
58 | O=C(NCc1ccccn1)c1ccccc1Cl | > 4 mM (inactive)
59 | O=C1NC(=O)C(Cc2ccccc2)C(=O)N1 | > 4 mM (inactive)
60 | CC(=O)O[C@@H]1CC2C(C)(C)[C@H](O)C[C@H](O)[C@]2(C)C2CC[C@@]3(C)C(=CC(=O)O[C@H]3c3ccoc3)[C@@]21C (some centres not stated) | > 4 mM (inactive)
61 | COc1cccc2c1CCC1=CC(=O)CC[C@@]12C | > 4 mM (inactive)
62 | Cc1onc(-c2ccccc2)c1C(=O)Nc1ccncc1 | > 4 mM (inactive)
63 | CCOC(=O)Cn1cnc2sc3c(c2c1=O)CCC3 | > 4 mM (inactive)
64 | CC[C@@]1(O)C(=O)OCc2c1cc1n(c2=O)Cc2cc3ccccc3nc2-1 | > 4 mM (inactive)
65 | CN1C2CC3C[C@H]1C(O3)C2O (some centres not stated) | > 4 mM (inactive)
66 | NCCC(=O)N[C@@H](Cc1cnc[nH]1)C(=O)O | > 4 mM (inactive)
67 | CC1(C)C(=O)N(O)C(C)(C)C(=O)N1O | > 4 mM (inactive)
68 | CN(C)CC(O)C1CCOC(C)(C)C1 (configuration not stated) | > 4 mM (inactive)
69 | Cc1cc(C(=O)N2CCCCCC2)cs1 | > 4 mM (inactive)
70 | NC(=O)C1CC2C=CC1C2 (configuration not stated) | > 4 mM (inactive)
71 | CC1(C)CC2C1CCC1(C)OC2(C)CCC1O (configuration not stated) | > 4 mM (inactive)
72 | CC(C)=CCCC1(C)C=Cc2c(O)c3c(c(CC=C(C)C)c2O1)OC12C(=CCCC1C(C)(C)O[C@@]2(C/C=C(\C)C(=O)O)C(=O)O)C3=O (some centres not stated) | > 4 mM (inactive)

Row | Compound | Kd
73 | Oc1ccc(C2SCCS2)cc1 | > 4 mM (inactive)
74 | CN(C)c1ccc(NC(=O)CC(C(=O)O)N(C)C)cc1 (configuration not stated) | > 4 mM (inactive)
75 | Nc1cc(-c2ccco2)[nH]n1 | > 4 mM (inactive)
76 | NC1CSCC1O (configuration not stated) | > 4 mM (inactive)
77 | O=C(O)CSc1nc2ccccc2c(=O)[nH]1 | > 4 mM (inactive)
78 | CC1C[C@H]2CC(=O)[C@H]3CCCN4CCC[C@H]2[C@]34C1 (some centres not stated) | > 4 mM (inactive)
79 | O=C1OCCC1Sc1nc2ccccc2c(=O)[nH]1 (configuration not stated) | > 4 mM (inactive)
80 | CC(=O)O[C@@H]1c2c(ccc3ccc(=O)oc23)OC(C)(C)[C@@H]1OC(=O)CC(C)C | > 4 mM (inactive)
81 | COc1cc(-c2coc3cc(O[C@@H]4O[C@H](CO)[C@@H](O)[C@H](O)[C@H]4O)c(OC)c(O)c3c2=O)cc(O)c1OC | > 4 mM (inactive)
82 | CN(c1ccccc1C(=O)N1CCOCC1)S(C)(=O)=O | > 4 mM (inactive)
83 | CC(C)(OC(=O)c1ccccc1)[C@@H]1Cc2cc3ccc(=O)oc3cc2O1 | > 4 mM (inactive)
84 | COC(=O)CC1SC(=O)NC1=O (configuration not stated) | > 4 mM (inactive)
85 | CCS(=O)(=O)N1CCN(c2ccccc2F)CC1 | > 4 mM (inactive)
86 | CC[C@]12CCCN3CCc4c(n(c5ccccc45)[C@](O)(C(=O)OC)C1)[C@@H]32 | > 4 mM (inactive)
87 | Cc1scc(C(=O)Nn2cnnc2)c1-c1ccccc1 | > 4 mM (inactive)
88 | CC(=O)Oc1ccc(O)cc1 | > 4 mM (inactive)
89 | O=C1CSC(=Nc2ccc(F)cc2)N1 | > 4 mM (inactive)
90 | O=C(Cc1c(F)cccc1Cl)Nc1ccon1 | > 4 mM (inactive)
91 | CCSc1nnc2[nH]c(=O)cc(C)n12 | > 4 mM (inactive)
92 | O=C(NCc1cccc(Cl)c1)c1cccnc1 | > 4 mM (inactive)
93 | Cc1sc2nc(-c3ccco3)oc(=O)c2c1C | > 4 mM (inactive)
94 | CCOC(=O)c1cc(C)n(C)n1 | > 4 mM (inactive)
95 | NC(=O)Cc1nc(-c2ccc(F)cc2)cs1 | > 4 mM (inactive)
96 | Nc1c2c3c(sc2nc(=O)n1N)CCCC3 | > 4 mM (inactive)

Row | Compound | Kd
97 | CS(=O)(=O)N1CCN(c2ccccc2F)CC1 | > 4 mM (inactive)
98 | CC(=O)O[C@H]1CC[C@]2(C)C3CC[C@@]4(C)C(CC5O[C@@]6(CCC(C)CO6)[C@@H](C)C54)C3CC[C@@H]2C1 (some centres not stated) | > 4 mM (inactive)
99 | COc1ccc(Cl)cc1NC(=O)C(N)=O | > 4 mM (inactive)
100 | CC(=O)C1=C(O)C(=O)NC1c1ccccc1 (configuration not stated) | > 4 mM (inactive)
101 | CSc1ccccc1NC(=O)c1cccnc1 | > 4 mM (inactive)
102 | O=C1CC(c2ccccc2)n2ncnc2N1 (configuration not stated) | > 4 mM (inactive)
103 | Cc1nnc(SCc2ccccc2)[nH]c1=O | > 4 mM (inactive)
104 | OCc1cccs1 | > 4 mM (inactive)
105 | Cc1cc(C)n(-c2nc(C)nc(N)n2)n1 | > 4 mM (inactive)
106 | O=C(O)CN1CCN(C2CCCC2)CC1 | > 4 mM (inactive)
107 | Nc1ccc(S(=O)(=O)Nc2nccs2)cc1 | > 4 mM (inactive)
108 | Cc1cc(SCC(=O)c2ccccc2)nc(=O)[nH]1 | > 4 mM (inactive)
109 | COc1cc2c(cc1OC)[C@@H]1C(=O)c3ccc4oc(C(C)C)cc4c3O[C@@H]1CO2 | > 4 mM (inactive)
110 | COc1ccc(-c2coc3cc(O)ccc3c2=O)cc1 | > 4 mM (inactive)
111 | OCc1ccccc1N1CCOCC1 | > 4 mM (inactive)
112 | Cc1cc(C(=O)O)n[nH]1 | > 4 mM (inactive)
113 | CC(=O)c1cc2c(cc1O)OC(C)(C)C=C2 | > 4 mM (inactive)
114 | O=C(c1ccncc1)N1CCN(C(=O)c2ccncc2)CC1 | > 4 mM (inactive)
115 | Cc1cc(C)nc(N(C#N)Cc2ccccc2)n1 | > 4 mM (inactive)
116 | OCc1ccncc1 | > 4 mM (inactive)
117 | O=C1C=CC2=C3c4cc(O)c(O)cc4CC3(O)COC2=C1O (configuration not stated) | > 4 mM (inactive)
